Reference: patent US20160024249A1, “Temperature-Responsive Polymer Compositions and Methods of Use” (Vanderbilt University, priority 2014, published 2016)
No end group written: not given here.

Assays:
[1] = tested on: mouse model of hind limb ischemia; test: Histological analysis of inflammation (H&E, F4/80 macrophage infiltration); format: in vivo, A/J mice; conditions: multiple 1 mL microgel injections
From the text: Mouse model of hind limb ischemia: Wild type A/J mice were used to develop a model of PAD as described previously, by ligating the femoral artery and vein at one ligation below the epigastric artery and a second ligation around the artery and vein at a distal location just proximal to the deep femoral branch. The femoral artery and vein were then cut between these two sutures. […] In order to control the hydrogel size considering the possibility that the hydrogel size may change peptide release and therefore inflammatory responses a single, 10 mL bulk injection or ten, 1 mL injections of peptide-loaded polymer were made into the thigh muscle adjacent to the femoral artery ligations. The surgical incision was then closed with non-degradable sutures. […]
Histological analysis of angiogenesis and inflammation: After sacrificing mice, ischemic muscle samples were prepared for histological analysis as described elsewhere. […] Immunohistochemical (IHC) staining to identify activated inflammatory cells by F4/80 expression was quantified by normalizing the total F4/80 positive area (indicated by brown staining) to the total cell number (determined by hema-toxylin nuclear staining) using Image J.

[2] = tested on: mouse model of hind limb ischemia; test: Laser Doppler perfusion imaging (LDPI) of perfusion recovery; format: in vivo, A/J mice; conditions: peptide-loaded microgels, 14 day time course
Procedure: Mouse model of hind limb ischemia: Wild type A/J mice were used to develop a model of PAD as described previously, by ligating the femoral artery and vein at one ligation below the epigastric artery and a second ligation around the artery and vein at a distal location just proximal to the deep femoral branch. The femoral artery and vein were then cut between these two sutures. A 13% by weight solution of injectable polymers in H2O 2O was mixed with 75 mg Ac-SDKP, C16, or the combination of Ac-SDKP and C16 at 25° C. In order to control the hydrogel size considering the possibility that the hydrogel size may change peptide release and therefore inflammatory responses a single, 10 mL bulk injection or ten, 1 mL injections of peptide-loaded polymer were made into the thigh muscle adjacent to the femoral artery ligations. The surgical incision was then closed with non-degradable sutures. […]
LDPI: LDPI was performed on the footpad region of the hind limb of the mice using a Periscan PIM II device. […] The perfusion ratio was calculated by normalizing the average perfusion value of the ischemic footpad (right) to the average perfusion value of the control, un-operated footpad (left) using Image J (NIH).

[3] = tested on: mouse model of hind limb ischemia; test: Optical coherence tomography (Doppler and speckle-variance OCT) of blood vessels; format: in vivo, A/J mice; conditions: for vessel morphology (speckle-variance OCT volume scans of calf muscle): injectable microgels
Procedure: (§1) Mouse model of hind limb ischemia: Wild type A/J mice were used to develop a model of PAD as described previously, by ligating the femoral artery and vein at one ligation below the epigastric artery and a second ligation around the artery and vein at a distal location just proximal to the deep femoral branch. The femoral artery and vein were then cut between these two sutures. A 13% by weight solution of injectable polymers in H2O 2O was mixed with 75 mg Ac-SDKP, C16, or the combination of Ac-SDKP and C16 at 25° C. In order to control the hydrogel size considering the possibility that the hydrogel size may change peptide release and therefore inflammatory responses a single, 10 mL bulk injection or ten, 1 mL injections of peptide-loaded polymer were made into the thigh muscle adjacent to the femoral artery ligations. The surgical incision was then closed with non-degradable sutures. As controls, femoral artery ligation surgery was performed on animals without any microgels or peptide treatment or with peptide in PBS injections into the subcutaneous tissue adjacent to femoral artery ligations. The left hind limb (unoperated) was also used as a surgical control.
Optical coherence tomography: Doppler OCT and speckle-variance OCT were used to non-invasively image blood vessels in the ischemic gastrocnemius muscle of mice on days 1 and 13 after femoral artery ligation, as previously described. […] Doppler OCT cross-sectional scans (B-scans) were used to quantify blood flow changes over time in the hind limb, while volume intensity projections from speckle-variance OCT image volumes (C-scans) presented vessel morphology differences between groups. […] Six Doppler OCT B-scans (4 mm, 800 A-scans, Doppler number of 9) were performed per mouse at each time point and perfusion was quantified by calculating the ratio of the number of blood vessel pixels per scan over the total imaged area per scan (n=6 mice per time point).

[4] = tested on: mouse model of hind limb ischemia; test: Fluorescence microangiography (vessel perfusion capacity); format: in vivo, A/J mice
Procedure: as §1
Angiogenesis and phagocytosis assays: Fourteen days after femoral artery ligation, mice were sacrificed and tissue and microgels were harvested for analysis. Immediately before sacrificing the mice, functional fluorescence micro-angiography was performed to visualize angiogenesis in and around peptide-loaded microgels, as described previously. As a result of fluorescence microangiography, only the functional capillaries with a perfusion capacity, including those around injected micro-gels, show red fluorescence in the mouse body. Excised tissue from the site of microgel injections was imaged using an Olympus FV100 confocal microscope. For quantification of vessel perfusion capacity, the red fluorescence intensity was quantified using Image J software (n=6 images per mouse, n=6 mice per treatment).

[5] = tested on: mouse model of hind limb ischemia; test: Vybrant phagocytosis assay in harvested microgels and surrounding tissue; format: in vivo, A/J mice; conditions: peptide-loaded microgels, day 14
From the text: Mouse model of hind limb ischemia: Wild type A/J mice were used to develop a model of PAD as described previously, by ligating the femoral artery and vein at one ligation below the epigastric artery and a second ligation around the artery and vein at a distal location just proximal to the deep femoral branch. The femoral artery and vein were then cut between these two sutures. […] In order to control the hydrogel size considering the possibility that the hydrogel size may change peptide release and therefore inflammatory responses a single, 10 mL bulk injection or ten, 1 mL injections of peptide-loaded polymer were made into the thigh muscle adjacent to the femoral artery ligations. The surgical incision was then closed with non-degradable sutures. As controls, femoral artery ligation surgery was performed on animals without any microgels or peptide treatment or with peptide in PBS injections into the subcutaneous tissue adjacent to femoral artery ligations. […]
A phagocytosis assay was performed in harvested microgels using Vybrant Phagocytosis Assay kit according to the manufacturer's protocol. Green fluorescence from internalized Escherichia coli particles in excised microgels and surrounding tissue was visualized through confocal imaging. The intensity of green fluorescence in each image was quantified using Image J (n=6 images per mouse, n=6 mice per treatment).

[6] = tested on: mouse aortic endothelial cells (mAECs); test: Gene expression by quantitative RT-PCR; format: cell-based; conditions: 75 mg/mL peptide, 72 h
Procedure: (§2) Cell Culture: RAW 264.7 macrophages (ATCC) were cultured in DMEM (Gibco) supplemented with 10% FBS and 1% penicillin/strepto-mycin. Mouse aortic endothelial cells (mAECs) were a generous gift from Dr. Ambra Pozzi at Vanderbilt University Medical Center. mAECs were cultured in EGM-2 Basal Media supplemented with BulletKit (Lonza, Allendale, N.J.) and 10 units/mLIFN-g (Sigma). RAW 264.7 mouse macrophage cells (Sigma) were cultured in DMEM with 10% FBS and 1% penicillin/streptomycin. For cell culture studies with peptides, 75 mg/mL of Ac-SDKP or C16 peptides was used. For inhibition studies, 5 mM of MMP-9 inhibitor-1 (CTK8G1150; AG-L-66085, Santa Cruz Biotechnology, Dallas, Tex.) or 5 mg/mL of LEAF Purified Mouse TNF-a antibody (BioLegend) was used.
Gene expression: mAECs or RAW 264.7 cells were seeded at a density of 3×10^5 cells/mL on TCPS with 75 mg/mL of Ac-SDKP, C16, or the combination of C16 and Ac-SDKP peptides. After 3 days, RNA was extracted from […] using Trizol reagent and RNA easy columns. After dissolving RNA in RNase-free water, the concentration and purity of isolated RNA was measured using TECAN plate reader Nanoquant (company info). At least […] of RNA was reverse transcribed using iScriptReverse transcription Supermix for RT-qPCR on a BioRad thermocycler (company info). 50 ng/well cDNA was then amplified using SYBR green Supermix and fluorescence signal was measured on a BioRAD real time PCR machine. TGF-b1 forward: […], reverse: […]. NF-kb forward: […]-CACAGA, reverse: […]. TIMP1 forward: […], reverse: […]-CACA. FGF-1 forward: […], reverse: […]. FGF-2: MMP-9: […]-CAATCC, reverse: […]. MMP-2 forward: […], reverse: […]. TNF-a: forward: […], reverse: AGA-[…]. VEGF forward: […]-CACCA, reverse: […]. GAPDH forward: […], reverse: […]. TIMP-2 forward: […], reverse: CACGCG-[…]. Expression was calculated using the […] and normalized to GAPDH expression (n=8).

[7] = tested on: RAW 264.7 macrophages; test: Gene expression by quantitative RT-PCR; format: cell-based, mouse; conditions: 75 mg/mL peptide, 72 h
Procedure: as §2
Gene expression: mAECs or RAW 264.7 cells were seeded at a density of 3×10^5 cells/mL on TCPS with 75 mg/mL of Ac-SDKP, C16, or the combination of C16 and Ac-SDKP peptides. After 3 days, RNA was extracted from […] using Trizol reagent and RNA easy columns. After dissolving RNA in RNase-free water, the concentration and purity of isolated RNA was measured using TECAN plate reader Nanoquant (company info). […] 50 ng/well cDNA was then amplified using SYBR green Supermix and fluorescence signal was measured on a BioRAD real time PCR machine. […] Expression was calculated using the […] and normalized to GAPDH expression (n=8).

[8] = tested on: RAW 264.7 macrophages; test: TNF-a ELISA of cell culture supernatant; format: cell-based, mouse; conditions: RAW 264.7, 72 h, peptides 75 mg/mL, TNF-a antibodies 5 mg/mL
Procedure: as §2
ELISA: To verify TNF-a inhibition with antibodies, an ELISA was performed using Mouse TNF-a ELISA MAXTM Deluxe (Biolegend) according to the supplier's protocol. Secreted TNF-a in RAW 264.7 cell culture supernatant was measured by reading absorbance at 450 nm using a TECAN M1000 plate reader and quantified against a standard curve (n=4 per treatment).

[9] = tested on: mouse aortic endothelial cells (mAECs); test: MMP-9 activity by zymography; format: cell-based; conditions: 72 h, peptides 75 mg/mL, MMP-9 inhibitors 5 mM, TNF-a antibodies 5 mg/mL
Procedure: as §2
MMP-9 activity: After 72 h culture in serum-free media, culture media from mAECs or RAW 264.7 cells (3×10^5 cells/mL, with/without peptides or TNF-a/MMP-9 inhibitors) was collected, concentrated, and analyzed by zymography, as described previously. Concentrated protein samples were incubated with non-reducing buffer at a ratio of 1:1. […] total protein per lane were loaded onto a 7.5% polyacrylamide gel containing 0.1%(w/v) gelatin (Sigma). Gels were washed in dH2O containing 3.3% (v/v) Triton X-100, followed by […] incubation in reaction buffer at 37 C. After incubation, gels were placed in fixative (30% methanol, 10% acetic acid, and 60% dH2O) for 1 h before staining with 4 parts Coomassie brilliant blue R-250 (Sigma) and 1 part methanol for 12 h. Gels were destained in 25% methanol for 1 h. The gelatinolytic activity of pro-MMP-9 was determined by densitometry of the 97 KDa white band on a blue background using Image J(n=4 per treatment). MMP-9 expression was then normalized to the expression from the no inhibitor, no peptide treated group.

[10] = tested on: mouse aortic endothelial cells (mAECs); test: Tubulogenesis on growth factor reduced Matrigel; format: cell-based; conditions: mAECs on Matrigel for 6 h
Procedure: as §2
Tubulogenesis: mAECs (3×10^5 cells/mL) were cultured on growth factor reduced Matrigel ([…], BD Biosciences) for 6 h before imaging for tube formation using a Nikon Eclipse Ti microscope (n=4 per treatment).

[11] = tested on: RAW 264.7 macrophages; test: MMP-9 activity by zymography; format: cell-based, mouse; conditions: RAW 264.7, 72 h, regardless of TNF-a inhibition
Procedure: as §2
MMP-9 activity: After 72 h culture in serum-free media, culture media from mAECs or RAW 264.7 cells (3×10^5 cells/mL, with/without peptides or TNF-a/MMP-9 inhibitors) was collected, concentrated, and analyzed by zymography, as described previously. Concentrated protein samples were incubated with non-reducing buffer at a ratio of 1:1. […] total protein per lane were loaded onto a 7.5% polyacrylamide gel containing 0.1%(w/v) gelatin (Sigma). […] The gelatinolytic activity of pro-MMP-9 was determined by densitometry of the 97 KDa white band on a blue background using Image J(n=4 per treatment). […]

[12] = tested on: iPSC-CMs
Procedure: The encapsulation study was performed by mixing cells with polymer solution and gelled at 37° C. After two weeks, live cells were stained by calcein AM (green fluorescence) (g).

N-acetyl-Ser-Asp-Lys-Pro (Ac-SDKP) [anti-inflammatory peptide]
inflammatory / macrophage infiltration in muscle tissue ([1]; day 14, vs no peptide): further decreased inflammatory infiltration
perfusion recovery (LDPI) [2]: did not increase perfusion
vessel morphology (speckle-variance OCT volume scans of calf muscle) [3]: few blood vessels with limited branching
angiogenesis in comparison to microgels without peptide loading ([4]; peptide-loaded microgels, day 14): reduced both responses
phagocytic activity in tissue around microgels [5]: reduced both responses
TNF-a expression in comparison to no peptide treatment [6]: decreased TNF-a expression
MMP-9 expression, decrease compared to no peptide treatment ([6]; normalized to GAPDH): over 50%
TNF-a expression in comparison to no peptide treatment [7]: decreased TNF-a expression
secreted TNF-a (ELISA) [8]: secreted the least amounts of TNF-a
MMP-9 activity in endothelial cells (zymography) [9]: diminished
tubulogenesis (tube formation) [10]: diminished

KAFDITYVRLKF [C16, pro-angiogenic peptide]
macrophage infiltration, increase compared to no peptide treatment ([1]; day 14): two fold
higher perfusion compared to microgels without peptides (LDPI) ([2]; ischemic/control foot ratio): 29%
increase in the total area of vessels (Doppler OCT) compared to Ac-SDKP or no treatment ([3]; implantable scaffolds, day 1 to day 13): greater than two fold
vessel morphology (speckle-variance OCT volume scans of calf muscle) [3]: many vessels with a high degree of branching
angiogenesis compared to PBS alone ([4]; PBS injections of peptide, no microgel): Slightly increased angiogenesis
angiogenesis / perfusion capacity increase vs. microgels without peptides ([4]; microgel-mediated delivery, day 14): ~1.5 fold
phagocytic activity in tissue around microgels [5]: higher phagocytic activity than no peptide controls
TIMP-1 expression [6]: decreased TIMP-1 expression significantly
TNF-a expression in comparison to no peptide treatment [6]: increased TNF-a expression
TNF-a expression in comparison to no peptide treatment [7]: increased TNF-a expression
MMP-9 activity compared to macrophages without peptide treatment [11]: significantly higher levels of MMP-9 activity
MMP-9 activity in endothelial cells (zymography) [9]: augmented MMP-9 activity and tubulogenesis
tubulogenesis (tube formation) [10]: augmented MMP-9 activity and tubulogenesis

CCN(CC)Cc1cc(C)c(N(Cc2ccccc2)S(=O)(=O)c2ccc(OC)cc2)c(C(=O)NO)c1 [MMP-9 inhibitor, reference compound]
MMP-9 activity in endothelial cells (zymography) [9]: attenuation of MMP-9 activity
tubulogenesis (tube formation) [10]: significantly reduced

polyethylene glycol-co-poly-8-caprolactone [PEG-PCL]
viability of encapsulated iPSC-CMs (calcein AM) [12]: maintained their viability
